Test results as given in patent US11840495B2, “Compositions and methods related to di-substituted bicyclo[2.2.1] heptanamine-containing compounds” (The Broad Institute, Inc., priority 2020, dated 2023).
Like-named read-outs stand apart in the source and are kept apart here.

Columns and labels:
Assay type in all cases: cell-based
FS MUC1 = assay: Automated fixation/staining imaging assay, FS MUC1 spot cytoplasm (Example 3); settings: 48 hour treatment time; for FS MUC1 Spot Cytoplasm Avg Emax: in % (unit assumed)
From the text: (§1) Prepared Renal Life Media by adding the supplements provided in the kit, substituting the FBS provided with Tet system approved FBS, and filtering the media (not including provided kit antibiotics). Thawed P6 vial(s) into T175 flasks 2 weeks prior to screening. Cells have to be passaged at least once after thaw before they can be used for screening. Hyperflasks can be used depending on the cell number needed. One confluent T175 flask should give at least 25 million cells. Cells should not be split beyond 1:2-1:4 and should only be trypsinized 1×/week. Cells must be spun down after each typsinization. Flasks must be confluent at time of plating. Flasks were incubated at 37° C., 5% CO2, 98% humidity. Cells can only be cultured for up to 10 passages before a new vial will need to be thawed.
(§2) • Day 1: Cells are plated. • Day 2: Compounds are transferred into assay plates with Echo (24 hours post-seeding) • Day 3: Begin preparing reagents for fixation and staining. • Day 4: Plates are fixed and stained (48 hour treatment time) on automated system and subsequently imaged on Opera Phenix. • Day 5: Data analysis and reporting is performed. Plate Preparation:
(§3) Calculated cell number needed and media volume needed for the run (MAX 20 plates/run). Cells were seeded into Synthemax-coated 384-well Cell Carrier plates at a density of 12,000 cells/well in 40 ul of Renal Life Media/well. Calculated for an extra 2-3 plate volumes to account for volume needed to fill the Combi cassette lines and left dead volume of cell suspension. (20 ul added with Combi after compound addition for total 60 ul assay volume, due to volume constraints of Echo transfer process). Trypsinized cells with 3 ml/T175 flask of TrypLE™ Express Enzyme 1X. Then spun down cells and resuspend in 10 ml media. Counted the cells using Nexcelom Cellometer K2. Prepared a mixture of 20 ul cell suspension/20 ul Cellometer AOPI Stain (#CS2-0106) and then add 20 ul of the 2 fold diluted mixture onto a Cellometer slide. Counted the cells by using the Dual Stain option and following the prompts. Recorded the live cell density, viability, and current passage number and date in notebook. Used the live cell density in calculating how to prepare the cell seeding suspension. Mixed the cell suspension thoroughly but gently. Once Combi cassette cleaned and cell suspension was made, dispensed 40 ul of cell suspension per well into the Synthemax-coated Cell Carrier assay plates. Immediately after seeding, stored the assay plates in the Liconic Incubator on the enclosed system in the 3100 automation lab, spaced plates out every other slot in stackers to maximize air flow.
(§4) Generated Arxspan Run ID to record compound transfer in CBIP. Spun down compound plates and assay plates 2000 RPM 10 sec. Load assay plates into Echo system incubator. Coordinated plate locations and record RUN ID with automation team member. Ran protocol for 100 nl transfer according to designated plate layout/template. When run was completed, added 20 ul of media/well for all assay plates with Combi in hood in Tissue culture room. Returned plates to the incubator in the enclosed system for 48 hour treatment time.
(§5) Heated up solution (100° C. on stir plate) and dissolved Roche Blocking reagent by stirring. The resulting solution was cloudy. Stored at 4° C. and used within one week or froze aliquots at −20° C. Combi 4: 1° Antibody Cocktail: Prepared the day of experiment. Swirled to mix. […] Prepared solution in Corning 250 ml conical flask and covered with tinfoil to protect from light.
(§6) Combi 5: 2° Antibody Cocktail: Prepared the day of experiment. Swirlrf to mix. […] Prepared solution in Corning 250 ml conical flask and covered with tinfoil to protect from light.
(§7) Removed media using BioTek plate washer. (PEKASP62) Moved plates to Combi. Combi 1. Dispensed 40 μl of 4% PFA (Combi on MEDIUM Speed). Incubated plates 20 minutes. Washed two times on BioTek plate washer. (PEK26X2)
(§8) Moved plates to Combi. Combi 2. […]

NUCB1 = assay: Automated fixation/staining imaging assay, NUCB1 intensity (Example 3); settings: 48 hour treatment time
From the text: as §1, §2, §3, §4, §5, §6, §7, §8

MUC1-fs = assay: Immunofluorescence imaging of MUC1-fs in P cells (Example 2); settings: for EC50: 48 hr incubation, MUC1-fs; for Emax / ECMax (%): 48 hr; for Emax: DMSO = 0, JQ1 = −100% activity, in %; for ECMax (%): DMSO = 0, JQ1 (250 nM) = −100% activity
Method: (§9) P cells were seeded 24 hr prior to compound treatment at a density of 12,000 cells/well in 384 well Cell Carrier Ultra plates (6057308, Perkin Elmer), pre-coated with 0.25 mg/mL Synthemax II SC Substrate (3535, Corning). Compounds were used at 5 doses (35, 3.5, 0.35, 0.035 and 0.0035 μM) for the primary screen and 10 doses (16, 5.6, 1.8, 0.6, 0.21, 0.07, 0.02, 0.008, 0.002 and 0.0008 μM) for the following screens. The compounds, in two replicates, were transferred from compound source plates to the cell plates using the HighRes Pin Tool. DMSO was used as a negative control and JQ1 (250 nM) (a bromodomain inhibitor) was chosen as a positive control, based on earlier studies showing its potent effect on reducing total MUC1 mRNA levels (data not shown). After 48 hr incubation, cells were fixed for 20 min in 4% PFA (Electron Microscopy Sciences) in PBS, washed twice, then permeabilized (10 min) with 0.5% Triton-X100 (X100-100ML, Sigma-Aldrich) in PBS and washed once more. Cells were blocked for 10 min at RT with Blocking solution (100 mM Tris HCL pH8; 150 mM NaCL; 5 g/L Blocking Reagent [11096176001, Roche]), then incubated 90 min at RT with one of the following primary antibodies in Roche Blocking solution: 1:500, monoclonal Fab-A-VSH anti-MUC1-fs, AbD22655.2, Bio-Rad; 1:2000, monoclonal mouse anti-MUC1 (214D4), 05-652-KC, Millipore; 1:1000, monoclonal, Rabbit anti-GM130 (D6B1) XP, 12480, Cell signaling technology. The primary antibody cocktail was incubated at RT for 1.5 hr, followed by four PBS wash cycles. The secondary antibody cocktail contained four components that were all prepared at a 1:1000 dilution in the Roche blocking solution and consisted of Alexa Fluor® 488-conjugated AffiniPure F(ab′)2 Fragment Goat anti-Human IgG, 109-546-097, Jackson Immunoresearch; Alexa Fluor® 647-conjugated Goat anti-Rabbit IgG, A-21246, Thermo Fisher Scientific®; Alexa Fluor® 546 Goat anti-mouse IgG, A-21123, Thermo Fisher Scientific® and Hoechst 33342 stain (62249, Thermo Fisher Scientific®). The secondary antibody cocktail was incubated at RT for 45 min, followed by four PBS wash cycles. Finally, plates were sealed with a Plate Loc plate and stored in Liconic incubator at 10° C. until imaging. Following image analysis, three parameters were selected, i) MUC1-fs and ii) MUC1-wt total cytoplasm intensity (averaged per cell) and iii) cell number as was detected by Hoechst 33342 stained nuclei. The levels of MUC1-fs and MUC1-wt found following DMSO and JQ1 were defined as 0 and −100% activity, respectively. The values obtained for all compounds were normalized accordingly. Cell number was normalized to DMSO control.

MUC1-wt = assay: Immunofluorescence imaging of MUC1-wt in P cells (Example 2); settings: for EC50: 48 hr incubation, MUC1-wt; for WT EMax / WT ECMax (%): 48 hr; for WT EMax: DMSO = 0, JQ1 = −100% activity, in %; for WT ECMax (%): DMSO = 0, JQ1 (250 nM) = −100% activity
Method: as §9

Row | Compound | IC50 (FS MUC1) [µM] | FS MUC1 Spot Cytoplasm Avg Emax (FS MUC1) | EC50 (MUC1-fs; read-out: EC50) [µM] | Emax (MUC1-fs) | EC50 (MUC1-wt; read-out: WT EC50) [µM] | WT EMax (MUC1-wt) | also measured
1 | N[C@]1(c2ccccc2)[C@@H]2CC[C@@H](C2)C12CCCC2 (racemic) [Compound 252] | 7.83 | −86.32 |  |  |  |  | EC50 (NUCB1): 11.2 µM; NUCB1 Intensity Avg Emax (NUCB1; in % (unit assumed)): −72.37
2 | CC(C)[C@H]1[C@H]2CC[C@H](C2)[C@@]1(C)N (racemic) [Compound 254] | 8.52 | −69.07 |  |  |  |  | 
3 | CC(C)[C@H]1[C@H]2CC[C@H](C2)[C@]1(C)N (racemic) [Compound 255] | 8.25 | −67.5 |  |  |  |  | 
4 | CC(C)[C@@H]1[C@H]2CC[C@H](C2)[C@@]1(C)N (racemic) [Compound 256] | 6.45 | −65.11 |  |  |  |  | 
5 | CC(C)[C@H]1[C@H]2CC[C@H](C2)[C@]1(C)N (single isomer, unassigned) [Compound 251] | 0.24 | −72.07 |  |  |  |  | 
6 | CC(C)[C@@H]1[C@H]2CC[C@H](C2)[C@@]1(C)N (single isomer, unassigned) [Compound 257] | 0.0969 | −74.94 |  |  |  |  | 
7 | Cl.N[C@H]1[C@@H]2CC[C@@H](C2)C12CCCC(C(=O)N1CCOCC1)C2 (stereo partly drawn) [Compound 226-1, ((1S,3S,4R)-3-aminospiro[bicyclo[2.2.1]heptane-2,1′-cyclohexan]-3′-yl)(morpholino)methanone hydrochloride] |  |  | > 16 | −32.0 | > 16 | −24.5 | 
8 | Cl.N[C@@H]1[C@@H]2CC[C@@H](C2)C12CCCC(C(=O)N1CCCCC1)C2 (stereo partly drawn) [Compound 227, ((1S,3R,4R)-3-aminospiro[bicyclo[2.2.1]heptane-2,1′-cyclohexan]-3′-yl)(piperidin-1-yl)methanone hydrochloride] |  |  | > 16 | −39.9 | > 16 | 4.6 | 
9 | Cl.N[C@H]1[C@@H]2CC[C@@H](C2)C12CCCC(C(=O)N1CCCCC1)C2 (stereo partly drawn) [Compound 227-1, ((1S,3S,4R)-3-aminospiro[bicyclo[2.2.1]heptane-2,1′-cyclohexan]-3′-yl)(piperidin-1-yl)methanone hydrochloride] |  |  | 3.6 | −79.5 | > 16 | −7.0 | 
10 | Cl.N[C@H]1[C@@H]2CC[C@@H](C2)C12CCCCC2 [Compound 231, (1S,3S,4R)-spiro[bicyclo[2.2.1]heptane-2,1′-cyclohexan]-3-amine hydrochloride] |  |  | 1.63 | −76.5 | > 16 | −7.0 | 
11 | C[C@]1(N)[C@@H]2CC[C@@H](C2)C12CCCCC2.Cl [Compound 234, (1S,3S,4R)-3-methylspiro[bicyclo[2.2.1]heptane-2,1′-cyclohexan]-3-amine hydrochloride] |  |  | 4.83 | −96 | > 16 | 6.7 | 
12 | Cl.N[C@@H]1[C@@H]2CC[C@@H](C2)C12CC1CCC2CC1 (stereo partly drawn) [Compound 239, (1S,3R,4R)-spiro[bicyclo[2.2.1]heptane-2,2′-bicyclo[2.2.2]octan]-3-amine hydrochloride] |  |  | 2.29 | −83.1 | 13.5 | 62.7 | 
13 | Cl.N[C@@H]1[C@@H]2CC[C@@H](C2)C12CCC[C@H](O)C2 (stereo partly drawn) [Compound 241-A, (1S,3R,3′S,4R)-3-aminospiro[bicyclo[2.2.1]heptane-2,1′-cyclohexan]-3′-ol hydrochloride] |  |  | > 16 | −11.4 | > 16 | −5.7 | 
14 | CC(C)[C@@]1(C)[C@H]2CC[C@H](C2)[C@H]1N.Cl [Compound 246-A, (1R,2R,3S,4S)-3-isopropyl-3-methylbicyclo[2.2.1]heptan-2-amine hydrochloride] |  |  | 1.9 | −67.8 | > 16 | 20.7 | 
15 | CC(C)[C@@]1(C)[C@H]2CC[C@H](C2)[C@@H]1N.Cl [Compound 246-B, (1R,2S,3S,4S)-3-isopropyl-3-methylbicyclo[2.2.1]heptan-2-amine hydrochloride] |  |  | 6.99 | −69.3 | > 16 | 6.2 | 
16 | CCC1(CC)[C@H]2CC[C@H](C2)[C@]1(N)c1cccs1.Cl [Compound 247, (1R,2R,4S)-3,3-diethyl-2-(thiophen-2-yl)bicyclo[2.2.1]heptan-2-amine hydrochloride] |  |  | > 16 | −45.8 | > 16 | 5.7 | 
17 | (1R,3S,4S)-spiro[bicyclo[2.2.1]heptane-3,1′-cyclopentan]-2-amine hydrochloride [Compound 209-P1] |  |  |  |  |  |  | EC50 (MUC1-fs; read-out: EC50(Spot)): 0.04 µM; ECMax (%) (MUC1-fs): −70.66%; EC50 (MUC1-wt; read-out: WT EC50 (Cytoplasm)): > 5.6 µM; WT ECMax (%) (MUC1-wt): −210%
18 | (1S,3R,4R)-spiro[bicyclo[2.2.1]heptane-3,1′-cyclohexan]-2-amine [Compound 212-P2] |  |  |  |  |  |  | EC50 (MUC1-fs; read-out: EC50(Spot)): 0.01 µM; ECMax (%) (MUC1-fs): −68.36%; EC50 (MUC1-wt; read-out: WT EC50 (Cytoplasm)): 2.6 µM; WT ECMax (%) (MUC1-wt): 183.41%
19 | (1S,3R,4R)-spiro[bicyclo[2.2.1]heptane-3,1′-cyclopentan]-2-amine hydrochloride [Compound 209-P2] |  |  |  |  |  |  | EC50 (MUC1-fs; read-out: EC50(Spot)): 0.01 µM; ECMax (%) (MUC1-fs): −64.28%; EC50 (MUC1-wt; read-out: WT EC50 (Cytoplasm)): 2.06 µM; WT ECMax (%) (MUC1-wt): −210%
